From PubChem BioAssay AID2060503 (Molecular Pharmacology Branch, DTP, NCI, 2025)

system: 817829-284-R-J1-PDC complex spheroids, viability; experiment: Anticancer human tumor 817829-284-R-J1-PDC patient-derived colon adenocarcinoma cell line growth inhibition [GQUAD]; conditions: curve of first compound; second compound 0.0316 µM
Method in brief: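 Tumor cells were grown as complex spheroids with HUVEC endothelial cells and mesenchymal stem cells as stroma. G-quadruplex stabilizers were combined with targeted agents over half-log dilutions from near the clinical Cmax, or from 10 microM.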
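Also: spheroids exposed to agents for 7 days before readout.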

Row | Structure (SMILES) | IC50 [nM]
1 | C#Cc1c(F)ccc2cc(O)cc(-c3ncc4c(N5CC6CCC(C5)N6)nc(OCC56CCCN5CC(F)C6)nc4c3F)c12 (stereo unspecified) + Cc1[nH]c2ccc(F)cc2c1-c1nc2c3cccnc3c3ncccc3c2[nH]1 | > 10000
2 | C=CCn1c(=O)c2cnc(Nc3ccc(N4CCN(C)CC4)cc3)nc2n1-c1cccc(C(C)(C)O)n1 + Cc1[nH]c2ccc(F)cc2c1-c1nc2c3cccnc3c3ncccc3c2[nH]1 | 220
3 | CC(C)(O)C1CCC(Nc2ccc3ncc(-c4cccc(C(F)(F)F)c4)n3n2)CC1 (stereo unspecified) + Cc1[nH]c2ccc(F)cc2c1-c1nc2c3cccnc3c3ncccc3c2[nH]1 | 2500
4 | Cc1[nH]c2ccccc2c1CCNCc1ccc(/C=C/C(=O)NO)cc1 + Cc1[nH]c2ccc(F)cc2c1-c1nc2c3cccnc3c3ncccc3c2[nH]1 | 54.5
5 | Nc1ccn(C2OC(CO)C(O)C2(F)F)c(=O)n1 (stereo unspecified) + Cc1[nH]c2ccc(F)cc2c1-c1nc2c3cccnc3c3ncccc3c2[nH]1 | < 31.6
6 | O=C(NO)c1cnc(N2CCN(S(=O)(=O)c3ccc4ccccc4c3)CC2)nc1 + Cc1[nH]c2ccc(F)cc2c1-c1nc2c3cccnc3c3ncccc3c2[nH]1 | 166
7 | O=c1[nH]cc(F)c(=O)[nH]1 + Cc1[nH]c2ccc(F)cc2c1-c1nc2c3cccnc3c3ncccc3c2[nH]1 | 1590

same assay, conditions: curve of first compound; second compound 0.1 µM

Row | Structure (SMILES) | IC50 [nM]
8 | C#Cc1c(F)ccc2cc(O)cc(-c3ncc4c(N5CC6CCC(C5)N6)nc(OCC56CCCN5CC(F)C6)nc4c3F)c12 (stereo unspecified) + Cc1[nH]c2ccc(F)cc2c1-c1nc2c3cccnc3c3ncccc3c2[nH]1 | > 10000
9 | C=CCn1c(=O)c2cnc(Nc3ccc(N4CCN(C)CC4)cc3)nc2n1-c1cccc(C(C)(C)O)n1 + Cc1[nH]c2ccc(F)cc2c1-c1nc2c3cccnc3c3ncccc3c2[nH]1 | 240
10 | CC(C)(O)C1CCC(Nc2ccc3ncc(-c4cccc(C(F)(F)F)c4)n3n2)CC1 (stereo unspecified) + Cc1[nH]c2ccc(F)cc2c1-c1nc2c3cccnc3c3ncccc3c2[nH]1 | 1310
11 | Cc1[nH]c2ccccc2c1CCNCc1ccc(/C=C/C(=O)NO)cc1 + Cc1[nH]c2ccc(F)cc2c1-c1nc2c3cccnc3c3ncccc3c2[nH]1 | 53.6
12 | Nc1ccn(C2OC(CO)C(O)C2(F)F)c(=O)n1 (stereo unspecified) + Cc1[nH]c2ccc(F)cc2c1-c1nc2c3cccnc3c3ncccc3c2[nH]1 | < 31.6
13 | O=C(NO)c1cnc(N2CCN(S(=O)(=O)c3ccc4ccccc4c3)CC2)nc1 + Cc1[nH]c2ccc(F)cc2c1-c1nc2c3cccnc3c3ncccc3c2[nH]1 | 189
14 | O=c1[nH]cc(F)c(=O)[nH]1 + Cc1[nH]c2ccc(F)cc2c1-c1nc2c3cccnc3c3ncccc3c2[nH]1 | 1940

same assay, conditions: curve of first compound; second compound 0.316 µM

Row | Structure (SMILES) | IC50 [nM]
15 | C#Cc1c(F)ccc2cc(O)cc(-c3ncc4c(N5CC6CCC(C5)N6)nc(OCC56CCCN5CC(F)C6)nc4c3F)c12 (stereo unspecified) + Cc1[nH]c2ccc(F)cc2c1-c1nc2c3cccnc3c3ncccc3c2[nH]1 | > 10000
16 | C=CCn1c(=O)c2cnc(Nc3ccc(N4CCN(C)CC4)cc3)nc2n1-c1cccc(C(C)(C)O)n1 + Cc1[nH]c2ccc(F)cc2c1-c1nc2c3cccnc3c3ncccc3c2[nH]1 | 259
17 | CC(C)(O)C1CCC(Nc2ccc3ncc(-c4cccc(C(F)(F)F)c4)n3n2)CC1 (stereo unspecified) + Cc1[nH]c2ccc(F)cc2c1-c1nc2c3cccnc3c3ncccc3c2[nH]1 | 955
18 | Cc1[nH]c2ccccc2c1CCNCc1ccc(/C=C/C(=O)NO)cc1 + Cc1[nH]c2ccc(F)cc2c1-c1nc2c3cccnc3c3ncccc3c2[nH]1 | 55.2
19 | Nc1ccn(C2OC(CO)C(O)C2(F)F)c(=O)n1 (stereo unspecified) + Cc1[nH]c2ccc(F)cc2c1-c1nc2c3cccnc3c3ncccc3c2[nH]1 | < 31.6
20 | O=C(NO)c1cnc(N2CCN(S(=O)(=O)c3ccc4ccccc4c3)CC2)nc1 + Cc1[nH]c2ccc(F)cc2c1-c1nc2c3cccnc3c3ncccc3c2[nH]1 | 195
21 | O=c1[nH]cc(F)c(=O)[nH]1 + Cc1[nH]c2ccc(F)cc2c1-c1nc2c3cccnc3c3ncccc3c2[nH]1 | 1990

same assay, conditions: curve of first compound; second compound 1 µM

Row | Structure (SMILES) | IC50 [nM]
22 | C#Cc1c(F)ccc2cc(O)cc(-c3ncc4c(N5CC6CCC(C5)N6)nc(OCC56CCCN5CC(F)C6)nc4c3F)c12 (stereo unspecified) + Cc1[nH]c2ccc(F)cc2c1-c1nc2c3cccnc3c3ncccc3c2[nH]1 | 5600
23 | C=CCn1c(=O)c2cnc(Nc3ccc(N4CCN(C)CC4)cc3)nc2n1-c1cccc(C(C)(C)O)n1 + Cc1[nH]c2ccc(F)cc2c1-c1nc2c3cccnc3c3ncccc3c2[nH]1 | 221
24 | CC(C)(O)C1CCC(Nc2ccc3ncc(-c4cccc(C(F)(F)F)c4)n3n2)CC1 (stereo unspecified) + Cc1[nH]c2ccc(F)cc2c1-c1nc2c3cccnc3c3ncccc3c2[nH]1 | 620
25 | Cc1[nH]c2ccccc2c1CCNCc1ccc(/C=C/C(=O)NO)cc1 + Cc1[nH]c2ccc(F)cc2c1-c1nc2c3cccnc3c3ncccc3c2[nH]1 | 51
26 | Nc1ccn(C2OC(CO)C(O)C2(F)F)c(=O)n1 (stereo unspecified) + Cc1[nH]c2ccc(F)cc2c1-c1nc2c3cccnc3c3ncccc3c2[nH]1 | < 31.6
27 | O=C(NO)c1cnc(N2CCN(S(=O)(=O)c3ccc4ccccc4c3)CC2)nc1 + Cc1[nH]c2ccc(F)cc2c1-c1nc2c3cccnc3c3ncccc3c2[nH]1 | 186
28 | O=c1[nH]cc(F)c(=O)[nH]1 + Cc1[nH]c2ccc(F)cc2c1-c1nc2c3cccnc3c3ncccc3c2[nH]1 | 1880

same assay, conditions: curve of first compound; second compound 3.16 µM

Row | Structure (SMILES) | IC50 [nM]
29 | C#Cc1c(F)ccc2cc(O)cc(-c3ncc4c(N5CC6CCC(C5)N6)nc(OCC56CCCN5CC(F)C6)nc4c3F)c12 (stereo unspecified) + Cc1[nH]c2ccc(F)cc2c1-c1nc2c3cccnc3c3ncccc3c2[nH]1 | < 31.6
30 | C=CCn1c(=O)c2cnc(Nc3ccc(N4CCN(C)CC4)cc3)nc2n1-c1cccc(C(C)(C)O)n1 + Cc1[nH]c2ccc(F)cc2c1-c1nc2c3cccnc3c3ncccc3c2[nH]1 | < 31.6
31 | CC(C)(O)C1CCC(Nc2ccc3ncc(-c4cccc(C(F)(F)F)c4)n3n2)CC1 (stereo unspecified) + Cc1[nH]c2ccc(F)cc2c1-c1nc2c3cccnc3c3ncccc3c2[nH]1 | < 31.6
32 | Cc1[nH]c2ccccc2c1CCNCc1ccc(/C=C/C(=O)NO)cc1 + Cc1[nH]c2ccc(F)cc2c1-c1nc2c3cccnc3c3ncccc3c2[nH]1 | 20.2
33 | Nc1ccn(C2OC(CO)C(O)C2(F)F)c(=O)n1 (stereo unspecified) + Cc1[nH]c2ccc(F)cc2c1-c1nc2c3cccnc3c3ncccc3c2[nH]1 | < 31.6
34 | O=C(NO)c1cnc(N2CCN(S(=O)(=O)c3ccc4ccccc4c3)CC2)nc1 + Cc1[nH]c2ccc(F)cc2c1-c1nc2c3cccnc3c3ncccc3c2[nH]1 | < 31.6
35 | O=c1[nH]cc(F)c(=O)[nH]1 + Cc1[nH]c2ccc(F)cc2c1-c1nc2c3cccnc3c3ncccc3c2[nH]1 | 684

same assay, conditions: curve of first compound; second compound 10 µM

Row | Structure (SMILES) | IC50 [nM]
36 | C#Cc1c(F)ccc2cc(O)cc(-c3ncc4c(N5CC6CCC(C5)N6)nc(OCC56CCCN5CC(F)C6)nc4c3F)c12 (stereo unspecified) + Cc1[nH]c2ccc(F)cc2c1-c1nc2c3cccnc3c3ncccc3c2[nH]1 | < 31.6
